19 compounds from patent publication EP3478687B1 (Daewoong Pharmaceutical Co., Ltd., priority 2016, dated 2018) can be followed below.

Assay [1] deals with T1, Recombinant purified human BTK (Homo sapiens, UniProt Q06187).
T1 construct: purchased Promega V9071
The assay can be described thus: BTK kinase inhibitory activity, ADP-Glo kinase assay (Promega V9071). It is filed as biochemical. The conditions noted are these: for IC50: ATP 10 uM, 8 ng BTK per reaction, 1 hour 30 °C, chemiluminescence; for inhibition at 0.1 µM: @100nM compound. The procedure:
(§1) JAK3 and BTK kinase inhibitory activities were measured for the compounds prepared in the above Examples through in vitro analysis on the ADP Glow (Glo) platform.
(§2) Specifically, the inhibitory activities of JAK3 and BTK kinase were measured using a JAK3 kinase assay kit (Promega, V9441) and a BTK kinase assay kit (Promega, V9071) which were purchased from Promega. Recombinant purified human JAK3 and BTK were diluted with 1 x kinase reaction buffer (JAK3: 40 mM Tris-Cl, pH 7.5, 20 mM MgCh, 0.1 mg/mL BSA and 50 uM DTT / BTK: 40 mM Tris-Cl, pH 7.5, 20 mM MgCl2, 0.1 mg/mL BSA, 2 mM MnCl2 and 50 uM DTT) and added to a 96 well plate (JAK3: final concentration of 4 ng per reaction/BTK: final concentration of 8 ng per reaction). The compounds were treated so as to be finally a 1% DMSO aqueous solution, and a substrate cocktail containing ATP (JAK3: final concentration of 5 uM / BTK: final concentration of 10 uM) and 0.2 µg/µL of Poly(Glu4, Tyr1) peptide (JAK3 and BTK final concentration) in the total 25 µL reactants was added to a 96-well plate to initiate enzymatic reaction. After incubation (30 °C) for 1 hour, equivalent volume (25 µL per reaction) of ADP Glo was added and incubated (30 °C) for 40 minutes at room temperature. Then, a kinase detection reagent (50 µL per reaction) was added and incubated (30 °C) for 30 minutes at room temperature. The kinase activity was measured by chemiluminescence according to the instructions of ADP Glo kinase assay kit, and the inhibitory activity of the compounds according to the present invention was calculated. For the analysis of the results of each compound, Microsoft Excel was used, and IC50 values were calculated by SigmaPlot software.

In assay [2] the target is T2, Recombinant purified human JAK3 (Homo sapiens, UniProt P52333).
T2 construct: purchased Promega V9441
T2 sequence (P52333 1-1124): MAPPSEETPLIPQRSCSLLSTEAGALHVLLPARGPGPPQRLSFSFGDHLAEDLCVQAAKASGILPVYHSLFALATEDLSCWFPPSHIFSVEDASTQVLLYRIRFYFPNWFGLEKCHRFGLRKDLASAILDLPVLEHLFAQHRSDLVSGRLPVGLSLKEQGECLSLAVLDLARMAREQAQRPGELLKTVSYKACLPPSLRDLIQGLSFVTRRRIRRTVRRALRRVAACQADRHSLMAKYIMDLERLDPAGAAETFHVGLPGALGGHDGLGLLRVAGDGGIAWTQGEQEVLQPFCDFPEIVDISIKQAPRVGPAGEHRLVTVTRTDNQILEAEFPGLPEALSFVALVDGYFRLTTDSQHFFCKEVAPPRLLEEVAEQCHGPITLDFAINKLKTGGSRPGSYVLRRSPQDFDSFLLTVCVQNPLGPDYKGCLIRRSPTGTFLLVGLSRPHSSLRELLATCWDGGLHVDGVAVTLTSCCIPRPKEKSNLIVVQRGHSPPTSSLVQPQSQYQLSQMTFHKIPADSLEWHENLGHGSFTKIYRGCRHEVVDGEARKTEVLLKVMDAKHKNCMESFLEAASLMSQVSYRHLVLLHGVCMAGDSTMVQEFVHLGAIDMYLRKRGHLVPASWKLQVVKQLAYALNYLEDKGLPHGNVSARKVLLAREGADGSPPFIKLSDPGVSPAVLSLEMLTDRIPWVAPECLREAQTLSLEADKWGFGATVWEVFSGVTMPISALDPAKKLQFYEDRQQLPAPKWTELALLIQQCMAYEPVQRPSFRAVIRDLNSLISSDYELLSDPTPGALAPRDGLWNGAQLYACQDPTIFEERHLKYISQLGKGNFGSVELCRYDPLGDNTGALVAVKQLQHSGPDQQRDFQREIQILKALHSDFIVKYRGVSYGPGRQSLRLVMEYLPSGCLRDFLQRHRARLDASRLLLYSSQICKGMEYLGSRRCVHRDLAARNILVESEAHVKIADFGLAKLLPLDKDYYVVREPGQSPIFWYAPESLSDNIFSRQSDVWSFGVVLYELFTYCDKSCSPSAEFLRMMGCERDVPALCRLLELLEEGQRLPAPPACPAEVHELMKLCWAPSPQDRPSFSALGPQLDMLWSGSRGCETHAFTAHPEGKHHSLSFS
Briefly: JAK3 kinase inhibitory activity, ADP-Glo kinase assay (Promega V9441). It is filed as biochemical. The conditions noted are these: for IC50: ATP 5 uM, 4 ng JAK3 per reaction, 1 hour 30 °C, chemiluminescence; for inhibition at 0.1 µM: @100nM compound. The method, then: as §1, §2

The mark [3] stands for this setting: printed in the JAK3 IC50 column.

The structures appear in SMILES notation.

T1 sequence (Q06187 whole entry): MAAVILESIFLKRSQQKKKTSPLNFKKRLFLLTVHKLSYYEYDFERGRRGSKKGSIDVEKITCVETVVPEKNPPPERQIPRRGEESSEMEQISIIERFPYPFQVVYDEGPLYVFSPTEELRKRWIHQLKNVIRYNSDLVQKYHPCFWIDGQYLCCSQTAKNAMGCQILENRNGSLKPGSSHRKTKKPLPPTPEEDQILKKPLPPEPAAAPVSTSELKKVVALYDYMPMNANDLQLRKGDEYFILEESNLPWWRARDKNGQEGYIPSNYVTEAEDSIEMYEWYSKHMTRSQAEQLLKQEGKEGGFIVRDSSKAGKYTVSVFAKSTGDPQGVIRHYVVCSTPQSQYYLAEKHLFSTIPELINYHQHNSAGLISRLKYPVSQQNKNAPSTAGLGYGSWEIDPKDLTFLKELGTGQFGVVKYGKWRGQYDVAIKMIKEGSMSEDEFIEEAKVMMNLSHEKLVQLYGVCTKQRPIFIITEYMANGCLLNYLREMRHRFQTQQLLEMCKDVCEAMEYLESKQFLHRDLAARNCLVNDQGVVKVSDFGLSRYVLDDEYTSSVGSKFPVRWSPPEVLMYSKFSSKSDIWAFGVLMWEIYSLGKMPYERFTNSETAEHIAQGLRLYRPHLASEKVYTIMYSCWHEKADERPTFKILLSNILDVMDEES

On to `C=CC(=O)N1CCC[C@@H](Nc2nc(Nc3ccc(N4CCN(C)CC4)cc3)nc3[nH]ccc23)C1` [Example 1, (R)-1-(3-(2-(4-(4-methylpiperazin-1-yl)phenylamino)-7H-pyrrolo[2,3-d]pyrimidin-4-ylamino)piperidin-1-yl)prop-2-en-1-one], for which the IC50 was found to be 10.7 nM in assay [1] and 3.73 nM in assay [2].

Consider `C=CC(=O)N1CCC[C@@H](Nc2nc(Nc3cccc(NC(=O)N4CCCC4)c3)nc3[nH]ccc23)C1` [Example 2, (R)-N-(3-(4-(1-acryloylpiperidin-3-ylamino)-7H-pyrrolo[2,3-d]pyrimidin-2-ylamino)phenyl)pyrrolidine-1-carboxamide], for which the IC50 in assay [1] was 27 nM; in assay [2], 8.9 nM.

Turning to `C=CC(=O)N1CCC[C@H](Nc2nc(Nc3cccc(NC(=O)N4CCCC4)c3)nc3[nH]ccc23)C1` [Example 3, (S)-N-(3-(4-(1-acryloylpiperidin-3-ylamino)-7H-pyrrolo[2,3-d]pyrimidin-2-ylamino)phenyl)pyrrolidine-1-carboxamide], the inhibition at 0.1 µM turned out to be 30% in assay [1] and 28.2% in assay [2] (setting [3]).

Turning to `C=CC(=O)N1CCC[C@@H](Nc2nc(Nc3ccc(N4CCOCC4)cc3)nc3[nH]ccc23)C1` [Example 4, (R)-1-(3-(2-(4-morpholinophenylamino)-7H-pyrrolo[2,3-d]pyrimidin-4-ylamino)piperidin-1-yl)prop-2-en-1-one], the IC50 was 26.7 nM in assay [1] and 6.9 nM in assay [2].

As to `C=CC(=O)N1CCC[C@@H](Nc2nc(Nc3ccc(N4CCCC4)cc3)nc3[nH]ccc23)C1` [Example 5, (R)-1-(3-(2-(4-(pyrrolidin-1-yl)phenylamino)-7H-pyrrolo[2,3-d]pyrimidin-4-ylamino)piperidin-1-yl)prop-2-en-1-one], the IC50 amounted to 76.7 nM in assay [1] and 24.6 nM in assay [2].

Turning to `C=CC(=O)N1CCC[C@@H](Nc2nc(Nc3ccc(-n4nc(C)cc4C)cc3)nc3[nH]ccc23)C1` [Example 6, (R)-1-(3-(2-(4-(3,5-dimethyl-1H-pyrazol-1-yl)phenylamino)-7H-pyrrolo [2,3-d]pyrimidin-4-ylamino)piperidin-1-yl)prop-2-en-1-one], the IC50 is 9.6 nM in assay [1] and 4.6 nM in assay [2].

With `C=CC(=O)N1CCC[C@@H](Nc2nc(Nc3ccc(OCCN(CC)CC)cc3)nc3[nH]ccc23)C1` [Example 7, (R)-1-(3-(2-(4-(2-(diethylamino)ethoxy)phenylamino)-7H-pyrrolo[2,3-d]pyrimidin-4-ylamino)piperidin-1-yl)prop-2-en-1-one], the figures for the IC50 in assay [1] and in assay [2] were 14 nM and 5 nM, respectively.

As for `C=CC(=O)N1CCC[C@@H](Nc2nc(Nc3ccc(C(=O)N4CCOCC4)cc3)nc3[nH]ccc23)C1` [Example 8, (R)-1-(3-(2-(4-(morpholine-4-carbonyl)phenylamino)-7H-pyrrolo[2,3-d]pyrimidin-4-ylamino)piperidin-1-yl)prop-2-en-1-one], the 50% inhibitory concentration (IC50) in assay [1] came out at 14.3 nM; in assay [2], 1.3 nM.

`C=CC(=O)N1CCC[C@@H](Nc2nc(Nc3ccc(N(C)C)cc3)nc3[nH]ccc23)C1` [Example 9, (R)-1-(3-(2-(4-(dimethylamino)phenylamino)-7H-pyrrolo[2,3-d]pyrimidin-4-ylamino)piperidin-1-yl)prop-2-en-1-one]: the IC50 turned out to be 20.5 nM in assay [1] and 3.9 nM in assay [2].

Take `C=CC(=O)N1CCC[C@@H](Nc2nc(Nc3cccc(-n4nc(C)cc4C)c3)nc3[nH]ccc23)C1` [Example 10, (R)-1-(3-(2-(3-(3,5-dimethyl-1H-pyrazol-1-yl)phenylamino)-7H-pyrrolo [2,3-d]pyrimidin-4-ylamino)piperidin-1-yl)prop-2-en-1-one]: the inhibition at 0.1 µM in assay [1] came out at 23.7%; in assay [2] (setting [3]), 32.8%.

With `C=CC(=O)N1CCC[C@H](Nc2nc(Nc3ccc(N4CCN(C)CC4)cc3)nc3[nH]ccc23)C1` [Example 11, (S)-1-(3-(2-(4-(4-methylpiperazin-1-yl)phenylamino)-7H-pyrrolo[2,3-d]pyrimidin-4-ylamino)piperidin-1-yl)prop-2-en-1-one], the inhibition at 0.1 µM in assay [1] stood at 26.5%; in assay [2] (setting [3]), 36%.

For the compound `C=CC(=O)N1CCC[C@@H](Nc2nc(Nc3ccc4ncsc4c3)nc3[nH]ccc23)C1` [Example 12, (R)-1-(3-(2-(benzo[d]thiazol-6-ylamino)-7H-pyrrolo[2,3-d]pyrimidin-4-ylamino)piperidin-1-yl)prop-2-en-1-one], the 50% inhibitory concentration (IC50) in assay [1] came to 10.6 nM; in assay [2], 1.3 nM.

Take `C=CC(=O)N1CCC[C@@H](Nc2nc(Nc3ccc(Oc4ccccc4)cc3)nc3[nH]ccc23)C1` [Example 13, (R)-1-(3-(2-(4-phenoxyphenylamino)-7H-pyrrolo[2,3-d]pyrimidin-4-ylamino)piperidin-1-yl)prop-2-en-1-one]: the inhibition at 1 µM in assay [1] (@1uM compound) amounted to 1%; in assay [2] (@1uM compound, printed in the JAK3 IC50 column), 0.4%.

Turning to `C=CC(=O)N1CCC[C@@H](Nc2nc(Nc3cnn(C)c3)nc3[nH]ccc23)C1` [Example 14, (R)-1-(3-(2-(1-methyl-1H-pyrazol-4-ylamino)-7H-pyrrolo[2,3-d]pyrimidin-4-ylamino)piperidin-1-yl)prop-2-en-1-one], the IC50 came out at 19.2 nM in assay [1] and 1.1 nM in assay [2].

On to `C=CC(=O)N1CCC[C@@H](Nc2nc(Nc3cnn(CC(F)F)c3)nc3[nH]ccc23)C1` [Example 15, (R)-1-(3-(2-(1-(2,2-difluoroethyl)-1H-pyrazol-4-ylamino)-7H-pyrrolo[2,3-d]pyrimidin-4-ylamino)piperidin-1-yl)prop-2-en-1-one], for which the 50% inhibitory concentration (IC50) in assay [1] was found to be 7.2 nM; in assay [2], 0.3 nM.

For the compound `C=CC(=O)N1CCC[C@@H](Nc2nc(Nc3cnn(C(F)F)c3)nc3[nH]ccc23)C1` [Example 16, (R)-1-(3-(2-(1-(difluoromethyl)-1H-pyrazol-4-ylamino)-7H-pyrrolo[2,3-d]pyrimidin-4-ylamino)piperidin-1-yl)prop-2-en-1-one], the 50% inhibitory concentration (IC50) in assay [1] worked out at 10.1 nM; in assay [2] it was 0.4 nM.

On to `C=CC(=O)N1CCC[C@@H](Nc2nc(Nc3cnn(CCOC)c3)nc3[nH]ccc23)C1` [Example 17, (R)-1-(3-(2-(1-(2-methoayethyl)-1H-pyrazol-4-ylamino)-7H-pyrrolo[2,3-d]pyrimidin-4-ylamino)piperidin-1-yl)prop-2-en-1-one], for which the results for the concentration for half-maximal inhibition (IC50) in assay [1] and in assay [2] were 11.8 nM and 0.6 nM, respectively.

Take `C=CC(=O)N1CCC[C@@H](Nc2nc(Nc3cnn(CCN4CCOCC4)c3)nc3[nH]ccc23)C1` [Example 18, (R)-1-(3-(2-(1-(2-morpholinoethyl)-1H-pyrazol-4-ylamino)-7H-pyrrolo[2,3-d]pyrimidin-4-ylamino)piperidin-1-yl)prop-2-en-1-one]: the IC50 came out at 8.8 nM in assay [1] and 0.3 nM in assay [2].

Turning to `C=CC(=O)N1CCC[C@@H](Nc2nc(Nc3cnn(CCN(CC)CC)c3)nc3[nH]ccc23)C1` [Example 19, (R)-1-(3-(2-(1-(2-(diethylamino)ethyl)-1H-pyrazol-4-ylamino)-7H-pyrrolo[2,3-d]pyrimidin-4-ylamino)piperidin-1-yl)prop-2-en-1-one], the results for the IC50 in assay [1] and in assay [2] were 8.7 nM and 0.5 nM, respectively.
